“Also recorded” adds a separate entry of the source.
Tests used:
α-synuclein (α-syn) = molecular target: T1, α-synuclein (α-syn) (Homo sapiens, UniProt P37840); experiment: Thioflavin T (ThT) fluorescence assay of α-syn fibril formation; type: biochemical; details: compound 3.125-100 μM, α-syn 2 μM, plateau phase
T1 construct: purchased rPeptide, LLC (Watkinsville, GA)

[1] = test system: M17D-TR/αS-3K::YFP neuroblastoma cells; experiment: α-Syn inclusion assay in dox-inducible neuroblastoma cells; type: cell-based; details: for reduction of inclusions: lower concentrations (below 40 μM)
Experimental: Dox-inducible neuroblastoma cells M17D-TR/αS-3K::YFP were used according to the published experimental procedure. For this cell-based assay, the cellular density consisted of 30,000 cells per well in a 96-well plate format. After 24 h of seeding the plates, compounds were introduced at ranging concentrations of 5 to 40 μM for a period of 24 h. After, the induction of the αS-3K::YFP transgene expression was initiated by adding dox (1 ug per mL, final concentration in culture media). Cells were incubated in the Incucyte Zoom 2000 platform (Essen Biosciences), where the acquisition of images (green, bright field) occurred continuously. After 48 hours of induction, inclusion formation and cell growth were assessed. To determine the level of different proteins by western blotting, α-syn monoclonal antibody 41312 (Thermofisher, Waltham, MA; 1:1000) and GAPDH polyclonal antibody (Sigma-Aldrich, St. Louis, MO, G9545; 1:5000) were used.
To evaluate the effects of compounds on inclusion formation and cell survival, M17D neuroblastoma cells that express an α-syn-derived αS-3K::YFP fusion protein in a doxycycline-inducible fashion were used. The cells were treated with 0.1% DMSO (control) and compounds 13, 2, 8, and 17 at various concentrations at t=24 hrs. Cells were induced with dox at t=48 hours. Punctate YFP signals were measured and normalized to 0.1% DMSO at t=96 hours. Eight independent experiments (N=8; n=14; except DMSO, n=30) were performed. The familial PD-linked α-syn missense mutation E46K is amplified by α-syn E35K+E46K+E61K (=αS3K), which results in round cytoplasmic α-syn-based inclusions in cultured cells. αS3K expression is responsible for cell stress/toxicity and delayed growth of neuroblastoma cells. […] Therefore, this assay was selected to evaluate the effect of the compound 13, as a weak to non-inhibitor of aggregation, and the three best anti-aggregation inhibitors, namely compounds 2, 8, and 17 (FIG. 6). […] Western blot analyses for total α-syn, normalized to calnexin (loading control), were performed to determine the compound effect on α-syn protein level due to degradation or non-specific effect on transgene expression.

α-syn [2] = molecular target: T2, α-syn (Homo sapiens, UniProt P37840); experiment: PICUP assay of α-syn oligomerization; type: biochemical; parameters: purchased rPeptide, LLC (Watkinsville, GA); details: for α-syn oligomerization (PICUP crosslinking): compound 50 μM; for α-syn oligomer formation, PICUP dose-response: compound 3.125-50 μM
Experimental: (§1) To force the oligomerization by cross-linking, α-syn (from Rpeptide, LLC) and tau isoform 2N4R were diluted in 10 mM phosphate buffer (pH 7.4) to reach a final concentration of 10 μM [27]. Different compounds were added to the protein solution at a final concentration of 50 μM, resulting in a molar ratio of 1:5. To confirm the gradual effect of the compounds on the inhibition of α-syn oligomerization, compounds were tested at final concentration of 3.125, 6.25, 12.5, 25, and 50 μM. The controls consisted of samples without light exposition, without Ru(bpy), and without compound (i.e., 0.125% DMSO). The cross-linking reaction was initiated by the addition of 2 μL of Ru(bpy) (300 μM final concentration) and 2 μL ammonium persulfate (6 mM final concentration). Samples were irradiated immediately. Light exposition was of 1 second duration for ca-syn and 3 second duration for tau isoform 2N4R, with a 53 W (120 V) incandescent lamp installed in a homemade dark-box. Each tube contained a final volume of 20 μL. After irradiation, 8.3 μL. of Lammeli loading buffer containing 15% β-mercaptoethanol was immediately added to the solution, followed by incubation at 95° C. for 10 minutes. The cross-linked samples were separated on a 16% SDS-Page gel and visualized by Coomassie blue staining.
(§2) One end point used to verify the propensity of misfolded protein in the drug discovery field is the inhibition of oligomer formation. The photo-induced cross-linking of unmodified proteins (PICUP) assay was used to investigate α-syn (60 μM) and tau isoform 2N4R (6 μM) oligomerization in the presence of eight amide compounds (2, 4, 5, 6, 7, 8, 13, and 17 at 50 μM, i.e., ~molar ratio 1:8 for tau). After being subjected to short light exposure, α-syn and tau were cross-linked and Coomassie-stained resolved as a higher molecular weight compared to control (0.125% DMSO). […] Compound 13 was used as a negative control for the α-syn PICUP.
(§3) PICUP assays were performed with different concentrations (50 μM, 25 μM, 12.5 μM, 6.25 μM, 3.125 μM; control=0.125% DMSO) for each lead compound.

tau isoform 2N4R [3] = molecular target: T3, tau isoform 2N4R (Homo sapiens, UniProt P10636); experiment: PICUP assay of tau isoform 2N4R oligomerization; type: biochemical; details: compound 50 μM
T3 construct: made in house; host or cells: E. coli BL21 (DE3), vector pRK172
T3 sequence (P10636 1-441 isoform P10636-8): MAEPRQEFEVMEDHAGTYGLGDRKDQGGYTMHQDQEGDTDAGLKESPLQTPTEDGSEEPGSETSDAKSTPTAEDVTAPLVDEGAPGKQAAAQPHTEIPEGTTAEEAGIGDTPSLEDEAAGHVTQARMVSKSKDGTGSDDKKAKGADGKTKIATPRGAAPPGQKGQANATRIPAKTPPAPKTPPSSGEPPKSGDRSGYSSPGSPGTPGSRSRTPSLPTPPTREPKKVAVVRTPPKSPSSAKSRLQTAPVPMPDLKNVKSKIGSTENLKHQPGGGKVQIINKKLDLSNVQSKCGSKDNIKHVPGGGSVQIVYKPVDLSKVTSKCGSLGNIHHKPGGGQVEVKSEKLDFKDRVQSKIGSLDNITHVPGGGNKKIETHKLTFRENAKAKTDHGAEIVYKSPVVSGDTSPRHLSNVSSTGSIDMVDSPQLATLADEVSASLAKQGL
Experimental: as §1, §2, §3

tau isoform 2N4R [4] = molecular target: T3, tau isoform 2N4R; experiment: Transmission electron microscopy of tau isoform 2N4R fibrils; type: biochemical; details: compound 100 μM, 50-hours exposure; reproduced at higher concentrations, molar ratio 1:10
Experimental: (§4) For the examination of ultrastructural changes, 60 μM of proteins (α-syn and tau isoform 2N4R) in contact with DMSO or 600 μM of compound were incubated in a 10 mM PBS buffer (pH 7.4) for 24 h at 37° C. (molar ratio 1:10). Samples at the end of tau ThT kinetics of fibril formation were also analyzed at similar molar ratio with 6 time less concentrated samples. For the preparation of grids prior examination, a volume of 10 μL if each sample was applied on a 400-mesh Formvar-carbon-coated copper grid (Electron Microscopy Sciences, Hatfield, PA). The grids were incubated for 1 minute with the sample and after washed three times with distilled water, After being air-dried, a fresh solution of 1% uranyl acetate was applied for 1 minute. Solution was absorbed with filter paper and grids were air-dried. Evaluation of grids were performed using a transmission microscope (JEOL 1400 Flash, Japan). Transmission electron micrographs were captured using an accelerating voltage of 100 kV and magnification of 40 k.
(§5) To confirm that the reduction of ThT fluorescence observed with compounds 2, 8, and 17 was due to the reduction in protein fibrillization rather than interference with ThT [31], transmission electron microscopy (TEM) of α-syn and tau isoform 2N4R with these same compounds was utilized to visualize direct changes in α-syn and tau isoform 2N4R fibril morphology after 24-hours exposure (FIG. 5). […] Results were reproduced using the tau isoform 2N4R and different compounds at the above-mentioned higher concentrations using the identical molar ratio and incubation time. […] Compound 2 was the only candidate resulting in a grid quasi exempt of fibrils.

α-syn [5] = molecular target: T2, α-syn; experiment: Transmission electron microscopy of α-syn fibrils; type: biochemical; details: 60 μM α-syn: 600 μM compound, 24-hours exposure
Experimental: as §4, §5

[6] = Mouse microsomal stability; type: in vitro ADME

SMILES | α-syn fibrillization, ThT dose-response (α-synuclein (α-syn)) | reduction of inclusions [1] | α-syn oligomerization (PICUP crosslinking) (α-syn [2]) | α-syn oligomer formation, PICUP dose-response (α-syn [2]) | tau isoform 2N4R oligomerization (PICUP crosslinking) (tau isoform 2N4R [3]) | tau isoform 2N4R fibril morphology (TEM) (tau isoform 2N4R [4]) | α-syn fibril morphology (TEM) (α-syn [5]) | toxicity (confluence) ([1]; 40 μM) | inclusion formation ([1]; 40 μM, M17D αS3K cells) | α-syn protein level (Western blot) ([1]; low concentration (5-10 μM) only) | Mouse microsomal stability [6] [%]
O=C(Nc1cccc2[nH]ccc12)c1ccccc1 [Compound 2, N-(1H-indol-4-yl)benzamide] | reduction in protein fibrillization when subjected to higher concentrations | None of these compounds exhibited a significant reduction of inclusions | effectively prevented this crosslinking | prevented α-syn oligomer formation in a dose-dependent manner | effectively prevented this crosslinking; also recorded: prevented tau 2N4R oligomer formation | levels of tau fibril at 20 μM were reduced; also recorded: Fewer and not well-defined fibrils | clear effect in reducing α-syn fibrillization | – | – | – | –
O=C(Nc1cccc2[nH]ccc12)c1ccc(F)cc1 [Compound 8, 4-fluoro-N-(1H-indol-4-yl)benzamide] | reduction in protein fibrillization when subjected to higher concentrations | None of these compounds exhibited a significant reduction of inclusions | effectively prevented this crosslinking | prevented α-syn oligomer formation in a dose-dependent manner | effectively prevented this crosslinking; also recorded: prevented tau 2N4R oligomer formation | levels of tau fibril at 20 μM were reduced | clear effect in reducing α-syn fibrillization; also recorded: most drastic effect, with immature fibrils surrounded by irregular globular structures | small degree of toxicity | reduced inclusion formation | reduced α-syn levels | 70
O=C(Nc1ccc2[nH]ccc2c1)c1ccccc1Cl [Compound 13, 2-chloro-N-(1H-indol-5-yl)benzamide] | – | None of these compounds exhibited a significant reduction of inclusions | – | – | – | long fibrils admixed with amorphous materials and/or debris | mature fibrils after 24 hours | – | – | – | –
